The record followed here is patent publication US20110201499A1, “Method of Improving Plant Yield of Soybeans by Treatment with Herbicides” (priority 2010, published 2011).

The subject of the experiment is Soybean (FG72 trait). Description: in-field research trial of herbicidal treatment effect on soybean yield. It is filed as in vivo. Conditions: isoxaflutole 35 g ai/ha soil treatment pre-emergence, then one application of glyphosate 1060 g ai/ha plus ammonium sulfate 2850 g ai/ha; weed free check = 100%; averaged across four replications; moisture standardized; Fithian, Ill. An excerpt: Soybean seed was secured for an in-field research trial. The soybean seed is genetically modified to be tolerant to applications of HPPD (4-hydroxyphenyl-pyruvate-dioxygenase) inhibiting herbicides (example: BALANCE PRO or isoxaflutole) and glyphosate (ROUNDUP ORIGINAL MAX). The trait is known as FG72.
The site was conventionally tilled and free of weeds at the time of planting. The soybean seed was planted in 30″ rows on Jun. 18, 2008. Broadcast spray treatments of a first herbicidal treatment composition comprising isoxaflutole were applied using a tractor mounted sprayer on Jun. 20, 2008. All areas of the field, including a weed-free check (control) that was not treated with isoxaflutole, were additionally treated on Jun. 20, 2008, with PURSUIT PLUS herbicide, a combination of 2.24% imazethapyr and 30.24% pendimethalin, available from BASF. The application was made prior to soybean and weed emergence.
To avoid any interference of weed effects on yield in the trial, the entire trial site was kept weed free for the entire growing season. […]
The trial was evaluated for herbicidal treatment effect on yield. […] Data was entered into and analyzed with ARM computer software. […] Treatment differences were determined using least significant differences (LSD, P=0.05).

As for `CS(=O)(=O)c1cc(C(F)(F)F)ccc1C(=O)c1cnoc1C1CC1` [isoxaflutole, 5-cyclopropyl-4-(2-methylsulfonyl-4-trifluoromethylbenzoyl) isoxazole], the “soybean seed yield as percent of the weed free check” value is reported as 108.5%.
